Measured values taken from publication PMC8026785, “The pharmacokinetics of [^18F]UCB-H revisited in the healthy non-human primate brain” (EJNMMI Research, 2021).
“And” between values parts separate entries of the source, which are not always exact repeats. Equal values may be shown once.

Target: T1, SV2A (Macaca fascicularis, UniProt Q4R4X3)
T1 construct: The current study evaluates [^18F]UCB-H pharmacokinetics in healthy NHPs; from tissue; host or cells: brain of living healthy cynomolgus monkeys (in vivo PET)
T1 sequence (Q4R4X3 whole entry): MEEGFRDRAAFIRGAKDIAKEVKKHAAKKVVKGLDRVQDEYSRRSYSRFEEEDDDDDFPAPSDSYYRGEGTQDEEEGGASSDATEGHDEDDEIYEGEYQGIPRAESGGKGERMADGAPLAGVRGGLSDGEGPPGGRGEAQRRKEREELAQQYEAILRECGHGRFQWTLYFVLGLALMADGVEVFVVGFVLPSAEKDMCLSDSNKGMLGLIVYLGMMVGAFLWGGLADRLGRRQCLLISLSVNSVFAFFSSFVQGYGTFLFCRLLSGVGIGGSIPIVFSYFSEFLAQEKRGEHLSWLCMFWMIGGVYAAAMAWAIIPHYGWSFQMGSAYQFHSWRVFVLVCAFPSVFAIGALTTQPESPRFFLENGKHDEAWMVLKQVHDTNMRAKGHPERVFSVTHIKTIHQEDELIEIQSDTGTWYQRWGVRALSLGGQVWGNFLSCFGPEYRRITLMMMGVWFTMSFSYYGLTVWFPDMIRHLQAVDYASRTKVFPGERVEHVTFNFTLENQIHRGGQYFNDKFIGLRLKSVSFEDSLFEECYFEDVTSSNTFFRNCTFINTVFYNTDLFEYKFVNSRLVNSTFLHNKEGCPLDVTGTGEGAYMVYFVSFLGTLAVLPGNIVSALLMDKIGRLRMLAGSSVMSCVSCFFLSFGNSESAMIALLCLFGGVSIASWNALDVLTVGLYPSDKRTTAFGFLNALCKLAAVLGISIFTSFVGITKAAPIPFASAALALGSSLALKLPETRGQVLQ
Assay: Brain PET kinetic modelling (1TCM, 2TCM, 2TCM-c, Logan), test-retest
Assay type: in vivo, cynomolgus monkeys (Macaca fascicularis)
Procedure: All four non-human primates (NHP) underwent a 2-h (2 h) test and retest PET scan; two NHP underwent an additional 4-h (4 h) retest PET scan. Three NHP underwent one 4-h (4 h) displacement PET scan. Arterial blood sampling was performed during test and retest scans with PET imaging spaced by at least 3 weeks between each scan. To this end, the femoral artery opposite to the saphenous vein used for radioligand injection was cannulated. For the 2-h (2 h) scans, we collected in total 28 blood samples of 1 mL: 16 samples during the first 5 min followed by […] every 5 min and […] every 10 min. For the 4 h scans, we collected an additional 6 samples every 20 min during the last two hours (34 samples in total). Larger samples (2 – 3 mL) were collected at 5, 15, 30, 60, 90, 120 min (2 h) and at 180, 240 min (4 h) for metabolite analysis. Displacement of [^18F]UCB-H was done by intravenous (IV) administration 90 min after [^18F]UCB-H injection of a bolus of 30 mg/kg LEV, or of 80 µg/kg (≈250 nmol/kg) or 5 mg/kg (≈15 µmol/kg) of cold [^19F]-UCB-H. Full experimental design of all NHP is outlined in Additional file 1: Table 1.
PET imaging was performed on the microPET FOCUS220 (Siemens) under standard anesthesia and monitoring procedures. Data acquisition started with the IV bolus injection of [^18F]UCB-H (32.9 ± 1.0 MBq/kg, 0.35 ± 0.07 µg/kg). Dynamic PET images were reconstructed using standard OSEM-2D algorithms while correcting for radioactive decay, scatter, attenuation and detectors inhomogeneity, which were measured prior to PET scanning using respectively ^57Co and ^68Ge external sources.
PET image analysis was performed using PMOD software version 3.8 (PMOD Technologies Ltd., Zurich, Suisse). After individual co-registration of PET-MR images, a cynomolgus atlas published by Ballanger and coworkers was normalized to PET images to extract time activity curves in different brain regions. Volumes of interest (VOI) were cerebral white matter (16.7 cm^3), striatum (0.24 cm^3), thalamus (0.89 cm^3), cerebellum (3.83 cm^3), frontal—(2.50 cm^3), parietal—(5.35 cm^3), and temporal (8.22 cm^3) cortex, and whole brain (72.2 cm^3) as a composite region of all regions in the atlas. [^18F]UCB-H pharmacokinetics were evaluated by analyzing the time activity curves of the test- and retest scans using 1- and 2-tissue compartment models (unconstrained and constrained with global K1/k2 coupled fit across all regions, further referred to as 2TCM and 2TCM-c), and Logan graphical analysis with a fixed t* at 60 min [33] using the arterial plasma input function corrected for radio-metabolites to derive the volume of distribution in each region. Percentage standard error (%SE) was estimated from the theoretical parameter covariance matrix. Only reliable estimates (%SE less than 25%) were included in the current analyses. For the three drug studies, percent displacement of the total activity in the whole brain was estimated relative to an average baseline constructed from the two 4 h baseline studies. Briefly, Standardized Uptake Value (SUV) time activity curves (TACs) were calculated for the two baseline and the three displacement studies. Then, each curve was normalized to the SUV at t = 90 min, corresponding to the timeframe immediately before the administration of the drugs in the displacement studies. Baseline curves were averaged and the percent displacement of total activity was calculated as (baseline-displacement)/baseline at a given time post drug administration (see “Results”).
Statistical analysis was performed using R software (version 3.3.1.). Plasma, intact parent fraction and time activity curves were statistically compared between subjects using a one-factor variance analysis. Absolute Test–Retest variability (aTRV) of PET quantification parameters was calculated as ABS(test—retest) / AVERAGE(test, retest). […]

[1] = White Matter, Retest, individual NHP
[2] = White Matter, Test, individual NHP

O=C1C[C@H](c2cc(F)c(F)c(F)c2)CN1Cc1ccncc1[18F] [[^18F]UCB-H]
k3/k4 (2TCM-c) (Thalamus, Retest, individual NHP): 0.64 and 2.00 and 0.90 and 0.33
VT (1TCM) (Thalamus, Retest, mean): 13.4 mL/cm^3
VT (2TCM) (Thalamus, Retest, mean): 13.0 mL/cm^3
VT (2TCM-c) (Thalamus, Retest, mean): 14.2 mL/cm^3
VT (Logan (t* = 60)) (Thalamus, Retest, mean): 14.3 mL/cm^3
k3/k4 (BPND) (2TCM-c) (Thalamus, Retest, mean): 0.97
K1 (2TCM) (Thalamus, Test, individual NHP): 0.21 ml/cm^3 /min and 0.24 ml/cm^3 /min and 0.45 ml/cm^3 /min and 0.53 ml/cm^3 /min
K1 (2TCM-c) (Thalamus, Test, individual NHP): 0.20 ml/cm^3 /min and 0.25 ml/cm^3 /min and 0.48 ml/cm^3 /min and 0.54 ml/cm^3 /min
K1/k2 (2TCM) (Thalamus, Test, individual NHP): 11.03 ml/cm^3 and 7.51 ml/cm^3 and 12.45 ml/cm^3 and 12.69 ml/cm^3
K1/k2 (2TCM-c) (Thalamus, Test, individual NHP): 7.86 ml/cm^3 and 4.35 ml/cm^3 and 8.22 ml/cm^3 and 10.99 ml/cm^3
VT (1TCM) (Thalamus, Test, individual NHP): 12.88 ml/cm^3 and 10.42 ml/cm^3 and 16.04 ml/cm^3 and 14.02 ml/cm^3
VT (2TCM) (Thalamus, Test, individual NHP): 13.65 ml/cm^3 and 17.60 ml/cm^3
VT (2TCM-c) (Thalamus, Test, individual NHP): 17.47 ml/cm^3 and 11.10 ml/cm^3 and 16.27 ml/cm^3 and 15.12 ml/cm^3
VT (Logan) (Thalamus, Test, individual NHP): 14.58 ml/cm3 and 12.30 ml/cm3 and 17.00 ml/cm3 and 15.59 ml/cm3
k3/k4 (2TCM) (Thalamus, Test, individual NHP): 0.82
k3/k4 (2TCM-c) (Thalamus, Test, individual NHP): 1.00 and 1.56 and 1.18 and 0.38
VT (1TCM) (Thalamus, Test, mean): 13.3 mL/cm^3
VT (2TCM) (Thalamus, Test, mean): 15.6 mL/cm^3
VT (2TCM-c) (Thalamus, Test, mean): 15.0 mL/cm^3
VT (Logan (t* = 60)) (Thalamus, Test, mean): 14.9 mL/cm^3
k3/k4 (BPND) (2TCM-c) (Thalamus, Test, mean): 1.03
K1 (2TCM) [1]: 0.29 ml/cm^3 /min and 0.49 ml/cm^3 /min and 0.32 ml/cm^3 /min and 0.35 ml/cm^3 /min
K1 (2TCM-c) [1]: 0.30 ml/cm^3 /min and 0.44 ml/cm^3 /min and 0.32 ml/cm^3 /min and 0.35 ml/cm^3 /min
K1/k2 (2TCM) [1]: 1.66 ml/cm^3 and 10.04 ml/cm^3 and 11.74 ml/cm^3
K1/k2 (2TCM-c) [1]: 7.25 ml/cm^3 and 4.64 ml/cm^3 and 9.07 ml/cm^3 and 10.70 ml/cm^3
VT (1TCM) [1]: 10.59 ml/cm^3 and 12.63 ml/cm^3 and 13.80 ml/cm^3 and 12.91 ml/cm^3
VT (2TCM) [1]: 10.58 ml/cm^3 and 12.82 ml/cm^3 and 14.29 ml/cm^3
VT (2TCM-c) [1]: 10.59 ml/cm^3 and 12.79 ml/cm^3 and 18.23 ml/cm^3 and 13.35 ml/cm^3
VT (Logan) [1]: 11.11 ml/cm3 and 12.93 ml/cm3 and 16.97 ml/cm3 and 13.41 ml/cm3
k3/k4 (2TCM) [1]: 6.72
k3/k4 (2TCM-c) [1]: 0.46 and 1.76 and 0.27
K1 (2TCM) [2]: 0.17 ml/cm^3 /min and 0.19 ml/cm^3 /min and 0.41 ml/cm^3 /min
K1 (2TCM-c) [2]: 0.17 ml/cm^3 /min and 0.20 ml/cm^3 /min and 0.42 ml/cm^3 /min
K1/k2 (2TCM) [2]: 9.57 ml/cm^3 and 6.00 ml/cm^3 and 9.76 ml/cm^3 and 11.24 ml/cm^3
K1/k2 (2TCM-c) [2]: 7.86 ml/cm^3 and 4.35 ml/cm^3 and 8.22 ml/cm^3 and 10.99 ml/cm^3
VT (1TCM) [2]: 12.00 ml/cm^3 and 9.44 ml/cm^3 and 14.88 ml/cm^3 and 12.88 ml/cm^3
VT (2TCM) [2]: 11.61 ml/cm^3 and 16.36 ml/cm^3
VT (2TCM-c) [2]: 15.44 ml/cm^3 and 10.47 ml/cm^3 and 15.61 ml/cm^3
VT (Logan) [2]: 14.19 ml/cm3 and 11.20 ml/cm3 and 15.99 ml/cm3 and 14.37 ml/cm3
k3/k4 (2TCM) [2]: 0.94
k3/k4 (2TCM-c) [2]: 1.41 and 1.09
ICC of 2TCM-c VT (White matter): 0.43
ICC of Logan (t* = 60) VT (White matter): 0.62
aTRV of 2TCM-c VT (White matter): 24%
aTRV of Logan (t* = 60) VT (White matter): 13%
VT (1TCM) (White matter, Retest, mean): 12.5 mL/cm^3
VT (2TCM) (White matter, Retest, mean): 12.6 mL/cm^3
VT (2TCM-c) (White matter, Retest, mean): 13.7 mL/cm^3
VT (Logan (t* = 60)) (White matter, Retest, mean): 13.6 mL/cm^3
k3/k4 (BPND) (2TCM-c) (White matter, Retest, mean): 0.83
VT (1TCM) (White matter, Test, mean): 12.3 mL/cm^3
VT (2TCM) (White matter, Test, mean): 14.0 mL/cm^3
VT (2TCM-c) (White matter, Test, mean): 13.8 mL/cm^3
VT (Logan (t* = 60)) (White matter, Test, mean): 13.9 mL/cm^3
k3/k4 (BPND) (2TCM-c) (White matter, Test, mean): 1.25
BPND lower compared to [^11C]UCB-J and other [^18F]-labelled SV2A radioligands (cynomolgus NHP): 3 to fourfold lower
VT lower compared to [^11C]UCB-J and other [^18F]-labelled SV2A radioligands (cynomolgus NHP): ~ 50%
free fraction in tissue fND (cynomolgus monkey, in vivo): 6.1 ± 1.3% and ~ 6%
tissue influx parameter K1 (grey matter regions, 2TCM and 2TCM-c): 0.37 ± 0.01 mL/cm^3/min
average VND (K1/k2 from 2TCM-c) (over all VOIs and animals): 7.89 ± 1.23 mL/cm^3
